# Test results published in US5137905A, “Heterocyclic acetylenic amines having central nervous system activity” (The Upjohn Company, priority 1991, dated 1992).
# Read-outs that look alike come from different tables or passages of the source.
# How the values were obtained:
# [1] = system: oxotremorine-induced body tremor; assay: Oxotremorine antagonist assay (body tremor); assay type: in vivo, mice; conditions: Mus musculus, ip; read-out: Oxot. Antagonist Tremor (ED50)
# Procedure: Oxotremorine antagonist assays were performed on groups of six mice weighing 18-22 g. Each was dosed intraperitoneally with the test compound prepared in 0.25% methylcellulose and were placed in individual cages. Twenty minutes later the mice were injected subcutaneously with 0.5 mg/kg of oxotremorine dissolved in saline. Ten minutes later the mice were scored for body tremor. Doses of the compound under study began at 100 mg/kg and were decreased at a 0.5 log interval until no responders were obtained.
# CNS cholinergic receptor [2] = assay: CNS cholinergic receptor binding, oxotremorine M ligand; conditions: tritiated oxotremorine M; read-out: CNS Cholinergic Receptor Binding Assays K1 Oxotremorine
# HCl-induced writhing = assay: HCl writhing protection (analgesic activity); assay type: in vivo, CF1 mice; conditions: Mus musculus, sc, read-out: CNS Id (ED50 mg/kg) HCl Writh. Protect
# Procedure: For determination of analgesic activity, the test compound was injected subcutaneously into a group of four CF1 mice. Thirty minutes later the mice were injected i.p. with 0.15% HCl, 10 ml./kg. Mice were then placed in plastic boxes and observed for fifteen minutes to record the number of animals failing to writhe.
# CNS cholinergic receptor [3] = conditions: tritiated quinuclidine benzylate (QNB); read-out: CNS Cholinergic Receptor Binding Assays K1 QNB
# [4] = ED50, s.c. in CF1 mice, 30 min before i.p. 0.15% HCl
SMILES,ED50 [1],Ki (CNS cholinergic receptor [2]),ED50 (HCl-induced writhing; [4]),Ki (CNS cholinergic receptor [3]),ED50 (HCl-induced writhing)
"CN1CCN(CC#CCN2CCCC2)C1=O [Compound 1, 1-Methyl-3-[4-(1-pyrrolidinyl)-2-butynyl]-2-imidazolidinone]",> 3 mg/kg,2.7 nM,0.2 mg/kg,180 nM,–
"CC(C)(C)OC(=O)N1CCN(CC#CCN2CCCC2)C1=O [Compound 8, t-Butyl 2-oxo-3-[4-(1-pyrrolidinyl)-2-butynyl]-1-imidazolidinecarboxylate]",> 100 mg/kg,130 nM,25 mg/kg,2200 nM,–
"O=C1NCCN1CC#CCN1CCCC1 [Compound 9, 1-[4-(1-Pyrrolidinyl)-2-butynyl]-2-imidazolidinone]",> 3 mg/kg,13 nM,2.2 mg/kg,800 nM,–
"CN(C)CC#CCN1CCN(C)C1=O [Compound 10, 1-[4-(1-Dimethylamino)-2-butynyl]-3-methyl-2-imidazolidinone]",> 10 mg/kg,4.5 nM,> 13 mg/kg,180 nM,–
"CN(C)CC#CCN1CCN(C(=O)OC(C)(C)C)C1=O [Compound 11, t-Butyl 3-[4-(dimethylamino)-2-butynyl]-2-oxo-1-imidazolidinecarboxylate]",> 100 mg/kg,160 nM,> 50 mg/kg,4700 nM,–
"CC1(C)CN(CC#CCN2CCCC2)C(=O)N1 [Compound 12, 4,4-Dimethyl-1-[4-(1-pyrrolidinyl)-2-butynyl]-2-imidazolidinone]",> 100 mg/kg,820 nM,> 50 mg/kg,–,–
"CN1C(=O)N(CC#CCN2CCCC2)CC1(C)C [Compound 13, 3,4,4-Trimethyl-1-[4-(1-pyrrolidinyl)-2-butynyl]-2-imidazolidinone]",> 100 mg/kg,> 10000 nM,12.5 mg/kg,–,–
"C#CCN1CCN(CC#CCN2CCCC2)C1=O [Compound 14, 1-(2-Propynyl)-3-[4-(1-pyrrolidinyl)-2-butynyl]-2-imidazolidinone]",> 30 mg/kg,200 nM,> 25 mg/kg,2300 nM,–
"CC1CN(CC#CCN2CCCC2)C(=O)N1 (centres unmarked) [Compound 15, 4-Methyl-1-[4-(1-pyrrolidinyl)-2-butynyl]-2-imidazolidinone]",> 10 mg/kg,140 nM,> 13 mg/kg,1000 nM,–
"CC1(C)CNC(=O)N1CC#CCN1CCCC1 [Compound 16, 5,5-Dimethyl-1-[4-(1-pyrrolidinyl)-2-butynyl]-2-imidazolidinone]",> 100 mg/kg,290 nM,25 mg/kg,1000 nM,–
"CC1CN(CC#CCN2CCCC2)C(=O)N1C(=O)OC(C)(C)C (centres unmarked) [Compound 17, t-Butyl 5-methyl-2-oxo-3-[4-(1-pyrrolidinyl)-2-butynyl]-1-imidazolidinecarboxylate]",> 100 mg/kg,810 nM,> 25 mg/kg,2700 nM,–
"CC1CN(C(=O)OC(C)(C)C)C(=O)N1CC#CCN1CCCC1 (centres unmarked) [Compound 18, t-Butyl 4-methyl-2-oxo-3-[4-(1-pyrrolidinyl)-2-butynyl]-1-imidazolidinecarboxylate]",> 30 mg/kg,180 nM,25 mg/kg,820 nM,–
"CC1CN(C)C(=O)N1CC#CCN1CCCC1 (centres unmarked) [Compound 19, 1,4Dimethyl-3-[4-(1-pyrrolidinyl)-2-butynyl]-2-imidazolidinone]",6.6 mg/kg,4 nM,> 13 mg/kg,20 nM,–
"O=C1N(CC#CCN2CCCC2)CCN1c1ccccc1 [Compound 20, 1-Phenyl-3-[4-(1-pyrrolidinyl)-2-butynyl]-2-imidazolidinone]",> 30 mg/kg,69 nM,> 25 mg/kg,170 nM,–
"CN(C)CC#CCN1CCN(c2ccccc2)C1=O [Compound 21, 1-[4-(Dimethylamino)-2-butynyl]-3-phenyl-2-imidazolidinone]",> 100 mg/kg,840 nM,> 50 mg/kg,> 10000 nM,–
"CC(C#CCn1ccnc1)N1CCN(C)C1=O (centres unmarked) [Compound 35, 3-[4-(1H-Imidazol-1-yl)-1-methyl-2-butynyl]-1-methyl-2-imidazolidinone]",> 100 mg/kg,120 nM,–,4010 nM,–
"CN(C)CC#CCn1ccn(C)c1=O [Compound 37, 1,3-Dihydro-1-[4-(dimethylamino)-2-butynyl]-3-methyl-2H-imidazol-2-one]",> 100 mg/kg,37 nM,–,> 10000 nM,–
"O=c1[nH]ccn1CC#CCN1CCCC1 [Compound 38, 1,3-Dihydro-1-[4-(1-pyrrolidinyl)-2-butynyl]-2H-imidazol-2-one]",> 2 mg/kg,33 nM,–,> 10000 nM,–

SMILES,ED50 [1],Ki (CNS cholinergic receptor [2]),ED50 (HCl-induced writhing; [4]),Ki (CNS cholinergic receptor [3]),ED50 (HCl-induced writhing)
"CC(C#CCN1CCCC1)n1ccn(C)c1=O (centres unmarked) [Compound 39, 1,3-Dihydro-1-methyl-3-[1-methyl-4-(1-pyrrolidinyl)-2-butynyl]-2H-imidazol-2-one]",> 30 mg/kg,9 nM,–,88 nM,–
"CC(C#CCN(C)C)n1ccn(C)c1=O (centres unmarked) [Compound 40, 1,3-Dihydro-1-methyl-3-[4-(dimethylamino)-1-methyl-2-butynyl]-2H-imidazol-2-one]",> 100 mg/kg,136 nM,–,> 10000 nM,–
"CN1CCCN(CC#CCN2CCCC2)C1=O [Compound 42, Tetrahydro-1-methyl-3-[4-(1-pyrrolidinyl)-2-butynyl]-2(1H)-pyrimidinone]",> 30 mg/kg,229 nM,–,1580 nM,–
"CN1C(=O)CN(CC#CCN2CCCC2)C1=O [Compound 43, 3-Methyl-1-[4-(1-pyrrolidinyl)-2-butynyl]-2,4-imidazolidinedione]",> 100 mg/kg,364 nM,–,> 10000 nM,–
"CN1CC(=O)N(CC#CCN2CCCC2)C1=O [Compound 44, 1-Methyl-3-[4-(1-pyrrolidinyl)-2-butynyl]-2,4-imidazolidinedione]",> 30 mg/kg,20 nM,–,8710 nM,–
"CC(C)(C)OC(=O)N1CCC[C@@H]1C#CCN1CCCC1 [Compound 49A, (R)-t-Butyl 2-[3-(1-pyrrolidinyl)-1-propynyl]-1-pyrrolidine-carboxylate]",100 mg/kg,20 nM,13 mg/kg,430 nM,–
"CC(C)(C)OC(=O)N1CCC[C@H]1C#CCN1CCCC1 [Compound 49B, (S)-t-Butyl 2-[3-(1-pyrrolidinyl)-1-propynyl]-1-pyrrolidinecarboxylate]",> 100 mg/kg,3500 nM,> 50 mg/kg,> 10000 nM,–
"CN(C)CC#C[C@H]1CCCN1C(=O)OC(C)(C)C [Compound 49C, (R)-t-Butyl 2-[3-(dimethylamino)-1-propynyl]-1-pyrrolidinecarboxylate]",> 100 mg/kg,44 nM,> 50 mg/kg,> 10000 nM,–
"C(#C[C@H]1CCCN1)CN1CCCC1 [Compound 50A, (R)-1-[3-(2-pyrrolidinyl)-2-propynyl]pyrrolidine]",> 100 mg/kg,260 nM,–,4800 nM,–
"CN(C)CC#C[C@H]1CCCN1 [Compound 50C, (R)-N,N-dimethyl-3-(2-pyrrolidinyl)-2-propyn-1-amine]",> 100 mg/kg,970 nM,–,> 1000 nM,> 50 mg/kg
"CN(C)CC#C[C@@H]1CCCN1 [Compound 50D, (S)-N,N-dimethyl-3-(2-pyrrolidinyl)-2-propyn-1-amine]",> 100 mg/kg,> 10000 nM,> 50 mg/kg,> 10000 nM,–
"CC(=O)N1CCC[C@@H]1C#CCN1CCCC1 [Compound 51A, (R)-1-Acetyl-2-[3-(1-pyrrolidinyl)-1-propynyl]pyrrolidine]",3 mg/kg,–,> 50 mg/kg,120 nM,–
"CC(=O)N1CCC[C@H]1C#CCN1CCCC1 [Compound 51B, (S)-1-Acetyl-2-[3-(1-pyrrolidinyl)-1-propynyl]pyrrolidine]",> 30 mg/kg,370 nM,–,2300 nM,–
"CC(=O)N1CCC[C@@H]1C#CCN(C)C [Compound 51C, (R)-1-Acetyl-2-[3-(dimethylamino)-1-propynyl]pyrrolidine]",> 100 mg/kg,130 nM,> 50 mg/kg,> 10000 nM,–
"CC(=O)N1CCC[C@H]1C#CCN(C)C [Compound 51D, (S)-1-Acetyl-2-[3-(dimethylamino)-1-propynyl]pyrrolidine]",> 100 mg/kg,10000 nM,> 50 mg/kg,> 10000 nM,–
"CN(C)C(=O)N1CCC[C@@H]1C#CCN1CCCC1 [Compound 51E, (R)-N,N-Dimethyl 2-[3-(1-pyrrolidinyl)-1-propynyl]-1-pyrrolidinecarboxamide]",25 mg/kg,12 nM,> 50 mg/kg,43 nM,–
"CN(C)C(=O)N1CCC[C@H]1C#CCN1CCCC1 [Compound 51F, (S)-N,N-Dimethyl 2-[3-(1-pyrrolidinyl)-1-propynyl]-1-pyrrolidinecarboxamide]",> 100 mg/kg,460 nM,> 50 mg/kg,2000 nM,–
"CNC(=O)N1CCC[C@@H]1C#CCN1CCCC1 [Compound 51G, (R)-N-Methyl 2-[3-(1-pyrrolidinyl)-1-propynyl]-1-pyrrolidinecarboxamide]",> 100 mg/kg,240 nM,> 50 mg/kg,> 10000 nM,–
